Results taken from ChEMBL document CHEMBL5620360, “Design, synthesis and biological evaluation of 4-(4-aminophenoxy)picolinamide derivatives as potential antitumor agents” (Eur J Med Chem, 2023).
The source made the active and inactive calls. The rule behind the calls is not given here.

Key:
[1] = Half life in Sprague-Dawley rat at 10 mg/kg, po by LC-MS/MS analysis; format: ADME, organism-based; conditions: in vivo
A549 [2] = test: Induction of cell cycle arrest in human A549 cells assessed as accumulation of cells at G2 phase at […] incubated for 24 hrs by propidium iodide staining based flow cytometry (reference value: 7.36%); format: functional; conditions: dose 2.5 µM
[3] = AUC(0 to t) in Sprague-Dawley rat at 1 mg/kg, iv by LC-MS/MS analysis; format: ADME, organism-based; conditions: in vivo
A549 [4] = test: Induction of cell cycle arrest in human A549 cells assessed as accumulation of cells at G2 phase at 5 uM incubated for 24 hrs by propidium iodide staining based flow cytometry (reference value: 7.36%); format: functional
[5] = Tmax in Sprague-Dawley rat at 10 mg/kg, po by LC-MS/MS analysis; format: ADME, organism-based; conditions: in vivo
A549 [6] = test: Induction of morphological changes in human A549 cells assessed as nucleus division and dispersion at 1.1 uM measured after 12 hrs by acridine orange staining based fluorescence microscopy; format: functional, cell-based
A549 [7] = test: Induction of apoptosis in human A549 cells assessed as necrotic cells at 10 uM measured after 24 hrs by AnnexinV-FITC/PI staining based flow cytometry (reference value: 4.01%); format: functional
A549 [8] = test: Induction of apoptosis in human A549 cells assessed as early apoptotic cells at 10 uM measured after 24 hrs by AnnexinV-FITC/PI staining based flow cytometry (reference value: 1.26%); format: functional
[9] = target: T1, Receptor-type tyrosine-protein kinase FLT3 (Homo sapiens, UniProt P36888); test: Inhibition of Flt3 (unknown origin)
T1 sequence (P36888 whole entry): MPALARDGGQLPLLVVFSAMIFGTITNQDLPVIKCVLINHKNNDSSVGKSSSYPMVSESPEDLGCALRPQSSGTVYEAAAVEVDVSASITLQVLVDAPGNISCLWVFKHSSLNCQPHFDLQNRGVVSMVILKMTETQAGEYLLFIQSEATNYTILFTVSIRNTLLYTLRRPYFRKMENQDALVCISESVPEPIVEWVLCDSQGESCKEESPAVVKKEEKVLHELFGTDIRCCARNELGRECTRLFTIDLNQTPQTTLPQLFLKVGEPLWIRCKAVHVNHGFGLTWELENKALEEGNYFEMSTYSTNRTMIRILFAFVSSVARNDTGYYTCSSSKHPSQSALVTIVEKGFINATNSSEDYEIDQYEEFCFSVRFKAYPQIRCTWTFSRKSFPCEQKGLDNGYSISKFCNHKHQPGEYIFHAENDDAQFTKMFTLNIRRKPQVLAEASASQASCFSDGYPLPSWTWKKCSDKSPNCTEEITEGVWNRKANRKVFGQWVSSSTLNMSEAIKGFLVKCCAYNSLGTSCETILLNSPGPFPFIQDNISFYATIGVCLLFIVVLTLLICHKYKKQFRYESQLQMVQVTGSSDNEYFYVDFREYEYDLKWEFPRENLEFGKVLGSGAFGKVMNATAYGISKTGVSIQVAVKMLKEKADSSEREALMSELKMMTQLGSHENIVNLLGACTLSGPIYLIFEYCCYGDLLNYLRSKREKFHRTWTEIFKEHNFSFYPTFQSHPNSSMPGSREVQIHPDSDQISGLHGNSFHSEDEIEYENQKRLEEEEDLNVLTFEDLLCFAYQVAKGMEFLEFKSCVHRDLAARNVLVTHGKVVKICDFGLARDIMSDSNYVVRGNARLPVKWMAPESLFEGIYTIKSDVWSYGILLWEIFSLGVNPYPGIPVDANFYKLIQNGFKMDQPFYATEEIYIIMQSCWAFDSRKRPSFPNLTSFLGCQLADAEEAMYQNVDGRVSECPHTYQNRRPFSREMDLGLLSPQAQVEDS

[10] = Cmax in Sprague-Dawley rat at 10 mg/kg, po by LC-MS/MS analysis; format: ADME, organism-based; conditions: in vivo
A549 [11] = test: Induction of morphological changes in human A549 cells assessed as reduction in cell number at 1.1 uM measured after 12 hrs by acridine orange staining based fluorescence microscopy; format: functional
A549 [12] = test: Induction of apoptosis in human A549 cells assessed as late apoptotic cells at 5 uM measured after 24 hrs by AnnexinV-FITC/PI staining based flow cytometry (reference value: 1.47%); format: functional
A549 [13] = test: Induction of apoptosis in human A549 cells assessed as viable cells at 10 uM measured after 24 hrs by AnnexinV-FITC/PI staining based flow cytometry (reference value: 93.25%); format: functional; conditions: read-out: Activity
A549 [14] = test: Induction of apoptosis in human A549 cells assessed as late apoptotic cells at […] measured after 24 hrs by AnnexinV-FITC/PI staining based flow cytometry (reference value: 1.47%); format: functional; conditions: dose 2.5 µM
[15] = target: Hepatocyte growth factor receptor (Homo sapiens, UniProt P08581); test: Inhibition of c-Met (unknown origin)
[16] = Oral bioavailability in Sprague-Dawley rat at 10 mg/kg by LC-MS/MS analysis; format: ADME, organism-based; conditions: in vivo
A549 [17] = test: Induction of cell cycle arrest in human A549 cells assessed as accumulation of cells at S phase at 5 uM incubated for 24 hrs by propidium iodide staining based flow cytometry (reference value: 38.18%); format: functional
MCF7 = test: cells; conditions: Homo sapiens, MCF7, 72 h
[18] = AUC(0 to infinity) in Sprague-Dawley rat at 1 mg/kg, iv by LC-MS/MS analysis; format: ADME, organism-based; conditions: in vivo
A549 [19] = test: Induction of apoptosis in human A549 cells assessed as early apoptotic cells at […] measured after 24 hrs by AnnexinV-FITC/PI staining based flow cytometry (reference value: 1.26%); format: functional; conditions: dose 2.5 µM
A549 [20] = test: Induction of apoptosis in human A549 cells assessed as necrotic cells at 5 uM measured after 24 hrs by AnnexinV-FITC/PI staining based flow cytometry (reference value: 4.01%); format: functional
[21] = AUC(0 to infinity) in Sprague-Dawley rat at 10 mg/kg, po by LC-MS/MS analysis; format: ADME, organism-based; conditions: in vivo
[22] = target: Dual specificity mitogen-activated protein kinase kinase 1 (Homo sapiens, UniProt Q02750); test: Inhibition of MEK1 (unknown origin)
A549 [23] = test: Induction of cell cycle arrest in human A549 cells assessed as accumulation of cells at G2 phase at 10 uM incubated for 24 hrs by propidium iodide staining based flow cytometry (reference value: 7.36%); format: functional
HeLa = test: Antiproliferative activity against human HeLa cells assessed as reduction in cell viability incubated for 72 hrs by MTT assay; format: functional, cell-based; conditions: Homo sapiens, HeLa, 72 h; read-out: IC50
A549 [24] = test: Induction of cell cycle arrest in human A549 cells assessed as accumulation of cells at G1 phase at […] incubated for 24 hrs by propidium iodide staining based flow cytometry (reference value: 54.46%); format: functional; conditions: dose 2.5 µM
[25] = target: Vascular endothelial growth factor receptor 2 (Homo sapiens, UniProt P35968); test: Inhibition of VEGFR2 (unknown origin)
A549 [26] = test: Induction of morphological changes in human A549 cells assessed as abnormal cell morphology at 1.1 uM measured after 12 hrs by acridine orange staining based fluorescence microscopy; format: functional

Chain of Vascular endothelial growth factor receptor 2 (P35968 whole entry): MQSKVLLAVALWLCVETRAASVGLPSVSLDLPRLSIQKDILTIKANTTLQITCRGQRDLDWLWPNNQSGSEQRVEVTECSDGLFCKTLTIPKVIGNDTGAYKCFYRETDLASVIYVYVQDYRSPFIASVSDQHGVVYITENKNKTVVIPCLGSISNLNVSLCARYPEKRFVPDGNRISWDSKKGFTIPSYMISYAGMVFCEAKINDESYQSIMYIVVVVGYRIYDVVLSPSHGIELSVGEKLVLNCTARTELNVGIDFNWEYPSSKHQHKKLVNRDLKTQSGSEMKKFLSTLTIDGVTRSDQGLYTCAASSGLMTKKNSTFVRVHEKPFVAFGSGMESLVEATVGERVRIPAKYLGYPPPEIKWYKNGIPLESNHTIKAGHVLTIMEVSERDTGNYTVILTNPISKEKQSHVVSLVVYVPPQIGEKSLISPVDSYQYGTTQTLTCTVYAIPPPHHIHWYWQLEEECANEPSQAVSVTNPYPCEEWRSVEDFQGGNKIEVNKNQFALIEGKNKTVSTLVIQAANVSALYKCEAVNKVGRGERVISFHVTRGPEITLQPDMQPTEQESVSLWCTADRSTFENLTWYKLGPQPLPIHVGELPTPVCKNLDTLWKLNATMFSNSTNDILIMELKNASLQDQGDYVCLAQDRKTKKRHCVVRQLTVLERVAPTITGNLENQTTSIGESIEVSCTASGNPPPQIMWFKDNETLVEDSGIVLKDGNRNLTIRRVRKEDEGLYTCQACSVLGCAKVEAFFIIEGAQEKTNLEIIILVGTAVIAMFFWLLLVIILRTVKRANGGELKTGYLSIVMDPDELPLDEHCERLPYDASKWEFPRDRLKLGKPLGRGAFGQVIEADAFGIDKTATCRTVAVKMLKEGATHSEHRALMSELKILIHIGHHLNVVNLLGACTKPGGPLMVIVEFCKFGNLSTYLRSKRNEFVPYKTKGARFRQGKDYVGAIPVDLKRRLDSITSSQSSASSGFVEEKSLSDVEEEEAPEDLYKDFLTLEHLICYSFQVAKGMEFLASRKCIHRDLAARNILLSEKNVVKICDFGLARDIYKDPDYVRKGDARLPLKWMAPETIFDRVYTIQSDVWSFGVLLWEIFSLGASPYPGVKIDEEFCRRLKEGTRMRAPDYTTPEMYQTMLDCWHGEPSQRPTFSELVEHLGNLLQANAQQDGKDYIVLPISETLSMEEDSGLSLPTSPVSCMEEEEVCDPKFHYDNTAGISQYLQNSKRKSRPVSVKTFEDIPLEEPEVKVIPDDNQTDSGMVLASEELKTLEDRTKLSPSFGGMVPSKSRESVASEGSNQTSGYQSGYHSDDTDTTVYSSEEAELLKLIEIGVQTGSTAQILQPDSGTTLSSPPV
Chain of Dual specificity mitogen-activated protein kinase kinase 1 (Q02750 whole entry): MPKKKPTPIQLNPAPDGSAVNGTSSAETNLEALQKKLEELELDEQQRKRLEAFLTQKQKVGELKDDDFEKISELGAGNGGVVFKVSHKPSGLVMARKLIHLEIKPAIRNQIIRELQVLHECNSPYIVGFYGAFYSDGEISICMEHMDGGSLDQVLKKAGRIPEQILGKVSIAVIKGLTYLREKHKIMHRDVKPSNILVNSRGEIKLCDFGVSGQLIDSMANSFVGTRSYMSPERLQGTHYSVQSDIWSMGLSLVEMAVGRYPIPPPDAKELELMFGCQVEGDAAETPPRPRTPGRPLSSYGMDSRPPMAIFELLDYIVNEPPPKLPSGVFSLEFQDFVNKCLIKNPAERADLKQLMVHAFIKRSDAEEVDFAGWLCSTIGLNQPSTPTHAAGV
Chain of Hepatocyte growth factor receptor (P08581 whole entry): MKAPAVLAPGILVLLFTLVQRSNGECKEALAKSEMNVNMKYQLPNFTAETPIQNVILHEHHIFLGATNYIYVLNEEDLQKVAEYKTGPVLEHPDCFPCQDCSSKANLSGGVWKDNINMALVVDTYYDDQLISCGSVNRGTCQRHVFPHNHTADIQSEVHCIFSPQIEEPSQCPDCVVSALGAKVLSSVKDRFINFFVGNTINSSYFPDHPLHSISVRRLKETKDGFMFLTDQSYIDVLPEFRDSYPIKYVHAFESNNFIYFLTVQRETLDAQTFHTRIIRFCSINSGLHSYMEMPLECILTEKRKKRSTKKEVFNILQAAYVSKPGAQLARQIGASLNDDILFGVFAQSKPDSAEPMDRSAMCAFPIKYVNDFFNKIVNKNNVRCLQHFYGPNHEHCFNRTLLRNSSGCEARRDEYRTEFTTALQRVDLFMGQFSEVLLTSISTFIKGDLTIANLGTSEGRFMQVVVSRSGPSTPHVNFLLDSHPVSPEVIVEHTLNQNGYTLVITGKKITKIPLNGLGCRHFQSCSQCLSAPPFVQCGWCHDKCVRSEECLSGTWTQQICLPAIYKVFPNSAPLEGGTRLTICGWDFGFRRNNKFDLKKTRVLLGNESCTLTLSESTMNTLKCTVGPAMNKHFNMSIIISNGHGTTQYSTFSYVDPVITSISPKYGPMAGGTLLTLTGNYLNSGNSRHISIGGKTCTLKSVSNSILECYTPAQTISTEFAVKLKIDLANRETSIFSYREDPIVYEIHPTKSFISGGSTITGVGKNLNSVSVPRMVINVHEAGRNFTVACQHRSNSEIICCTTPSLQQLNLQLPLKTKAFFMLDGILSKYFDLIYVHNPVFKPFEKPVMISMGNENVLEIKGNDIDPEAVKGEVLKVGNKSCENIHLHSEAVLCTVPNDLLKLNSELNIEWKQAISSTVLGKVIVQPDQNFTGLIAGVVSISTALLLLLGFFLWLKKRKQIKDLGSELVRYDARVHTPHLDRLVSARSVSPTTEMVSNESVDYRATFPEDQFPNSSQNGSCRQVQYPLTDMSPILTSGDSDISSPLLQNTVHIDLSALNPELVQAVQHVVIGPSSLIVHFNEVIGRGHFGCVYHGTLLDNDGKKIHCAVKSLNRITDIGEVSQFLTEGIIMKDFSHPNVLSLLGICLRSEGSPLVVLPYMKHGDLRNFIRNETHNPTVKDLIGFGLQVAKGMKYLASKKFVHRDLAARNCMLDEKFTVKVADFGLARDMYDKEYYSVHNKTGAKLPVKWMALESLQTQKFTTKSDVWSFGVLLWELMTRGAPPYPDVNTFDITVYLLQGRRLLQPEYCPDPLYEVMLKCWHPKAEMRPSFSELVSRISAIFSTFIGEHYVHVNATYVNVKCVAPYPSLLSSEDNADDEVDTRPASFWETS

O=C(NCCCN1CCOCC1)c1cc(Oc2ccc(NC(=O)c3cn(-c4ccc(F)c(Cl)c4)c4ncccc4c3=O)cc2F)ccn1
half-life [1]: 4.5 h
Activity (A549 [2]): 8.89%
AUC(0-t) [3]: 2860 ng·h/mL
Activity (A549 [4]): 11.77%
Tmax [5]: 2.7 h
Activity (A549 [6]): Active
Activity (A549 [7]): 11.9%
Activity (A549 [8]): 5.57%
IC50 [9]: > 100000 nM
Cmax [10]: 390 ng/mL
Activity (A549 [11]): Active
Activity (A549 [12]): 4.29%
viability at 10 µM (A549 [13]): 74.3%
Activity (A549 [14]): 2.02%
IC50 [15]: 46.5 nM
bioavailability [16]: 13.2%
Activity (A549 [17]): 30.85%
IC50 (MCF7): 2350 nM
AUC(0-inf) [18]: 2870 ng·h/mL
Activity (A549 [19]): 1.57%
Activity (A549 [20]): 7.49%
AUC(0-inf) [21]: 3400 ng·h/mL
IC50 [22]: > 100000 nM
Activity (A549 [23]): 12.65%
IC50 (HeLa): 820 nM
Activity (A549 [24]): 55.95%
IC50 [25]: > 100000 nM
Activity (A549 [26]): Active
